Experimental data taken from ChEMBL document CHEMBL5726715 (2018).

Target: T1, 3-phosphoinositide-dependent protein kinase 1 (Homo sapiens, UniProt O15530)
T1 sequence (O15530 whole entry): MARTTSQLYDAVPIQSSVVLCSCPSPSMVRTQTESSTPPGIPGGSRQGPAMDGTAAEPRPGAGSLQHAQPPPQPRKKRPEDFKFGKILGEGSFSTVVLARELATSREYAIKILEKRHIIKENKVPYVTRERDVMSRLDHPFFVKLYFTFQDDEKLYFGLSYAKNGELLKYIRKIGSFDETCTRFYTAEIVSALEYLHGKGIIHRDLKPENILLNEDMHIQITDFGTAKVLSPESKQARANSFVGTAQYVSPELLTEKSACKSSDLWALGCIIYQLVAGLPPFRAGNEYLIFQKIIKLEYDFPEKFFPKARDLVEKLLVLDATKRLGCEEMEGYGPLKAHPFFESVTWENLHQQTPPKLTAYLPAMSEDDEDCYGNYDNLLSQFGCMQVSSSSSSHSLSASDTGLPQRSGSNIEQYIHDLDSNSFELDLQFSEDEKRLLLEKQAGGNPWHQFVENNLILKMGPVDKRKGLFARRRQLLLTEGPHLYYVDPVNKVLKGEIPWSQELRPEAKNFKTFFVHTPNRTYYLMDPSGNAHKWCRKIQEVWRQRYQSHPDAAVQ
Experiment: Kinase Assay: A PDK1 kinase assay was performed as follows. […] PDK1 protein was divided into two fractions, one of which was subsequently dephosphorylated. To generate dephosphorylated PDK1, the PDK1 was reacted with GST-tagged lambda-phosphatase in vitro. GST was subsequently cleaved proteolytically for both phosphorylated and dephosphorylated PDK1. Protein preparations were run on glutathione Sepharose columns to remove GST and GST-tagged lambda-phosphatase, if present. […] Enzyme activity was determined in a coupled PDK1/AKT/FAM-crosstide assay using either phosphorylated or unphosphorylated PDK1 and phosphorylation of FAM-crosstide was determined by standard IMAP protocol (Molecular Devices). For inhibition studies, compounds were titrated 3-fold in DMSO and diluted 40-fold into assay buffer (10 mM Tris HCl pH7.2; 10 mM MgCl2; 0.01% Triton X-100; 1 mM DTT) containing PDK1, AKT2, and FAM-crosstide. […] To detect assay product, the kinase reaction was combined with Progressive Binding Solution (1:600 Progressive Binding Reagent, 50% Buffer A, 50% Buffer B, Molecular Devices) in a 1:3 ratio.

| Compound | IC50 |
| --- | --- |
| C[C@H](COc1ccc2[nH]c(=O)[nH]c2c1)NC(=O)c1cccn(Cc2cc(F)c(F)c(F)c2)c1=O | < 500 nM |
| O=C(NCc1cncc(-c2c[nH]c3ncccc23)c1)c1cccn(Cc2ccc(F)c(F)c2)c1=O | < 500 nM |
| O=C(NC/C=C/c1ccc2[nH]c(=O)[nH]c2c1)c1cccn(Cc2cc(F)c(F)c(F)c2)c1=O | < 500 nM |
| O=C(NCc1cccc(-c2c[nH]c3ncccc23)c1)c1cccn(Cc2ccc(C(F)(F)F)cc2)c1=O | < 500 nM |
| Nc1ncnc2ccc(-c3ccc(CNC(=O)c4cccn(Cc5ccc(F)c(F)c5)c4=O)s3)cc12 | < 500 nM |
| O=C(NCc1ccc(OCCN2CCOCC2)c(-c2c[nH]c3ncccc23)c1)c1cccn(Cc2ccc(F)c(F)c2)c1=O | < 500 nM |
| NC(=O)COc1cc(CNC(=O)c2cccn(Cc3ccc(F)c(F)c3)c2=O)cc(-c2c[nH]c3ncccc23)c1 | < 500 nM |
| O=C(NCc1cccc(-c2c[nH]c3nccc(F)c23)c1)c1cccn(Cc2ccc(F)c(F)c2)c1=O | < 500 nM |
| C=C[C@H](COc1ccc2[nH]c(=O)[nH]c2c1)NC(=O)c1cccn(Cc2cc(F)c(F)c(F)c2)c1=O | < 500 nM |
| NC(=O)c1cc(-c2cccc(CNC(=O)c3cccn(Cc4ccc(F)c(F)c4)c3=O)c2)c[nH]1 | < 500 nM |
| O=C(NCc1noc(-c2c[nH]c3ncccc23)n1)c1cc(Cl)cn(Cc2ccc(C(F)(F)F)cc2)c1=O | < 500 nM |
| Cc1[nH]c2ncccc2c1-c1cccc(CNC(=O)c2cccn(Cc3ccc(F)c(F)c3)c2=O)c1 | < 500 nM |
| O=C(N[C@@H](COc1ccc2[nH]c(=O)[nH]c2c1)C1CC1)c1cccn(Cc2cc(F)c(F)c(F)c2)c1=O | < 500 nM |
| O=C(Nc1ccnc2ccc(-c3c[nH]c4ncccc34)cc12)c1cccn(Cc2ccc(F)c(F)c2)c1=O | < 500 nM |
| O=C(NCc1cc(OC2CCCC2)cc(-c2c[nH]c3ncccc23)c1)c1cccn(Cc2ccc(F)c(F)c2)c1=O | < 500 nM |
| Cn1nc(NC(=O)c2cccn(Cc3ccc(F)c(F)c3)c2=O)c2cc(-c3c[nH]c4ncccc34)ccc21 | < 500 nM |
| CN(C)C(=O)COc1cc(CNC(=O)c2cccn(Cc3ccc(F)c(F)c3)c2=O)cc(-c2c[nH]c3ncccc23)c1 | < 500 nM |
| NC(=O)[C@H](COc1ccc2[nH]c(=O)[nH]c2c1)NC(=O)c1cccn(Cc2cc(F)c(F)c(F)c2)c1=O | < 500 nM |
| O=C(O)Cn1nc(NC(=O)c2cccn(Cc3ccc(F)c(F)c3)c2=O)c2cc(-c3c[nH]c4ncccc34)ccc21 | < 500 nM |
| Nc1ncnc2ccc(-c3cccc(CNC(=O)c4cccn(Cc5ccc(F)c(F)c5)c4=O)c3)cc12 | < 500 nM |
| O=C(NCc1cc(-c2c[nH]c3ncccc23)ccc1O)c1cccn(Cc2ccc(F)c(F)c2)c1=O | < 500 nM |
| COc1ccc(CNC(=O)c2cccn(Cc3ccc(F)c(F)c3)c2=O)cc1-c1c[nH]c2ncccc12 | < 500 nM |
| CN1CCC(Oc2cc(CNC(=O)c3cccn(Cc4ccc(F)c(F)c4)c3=O)cc(-c3c[nH]c4ncccc34)c2)CC1 | < 500 nM |
| O=C(O)c1cc(-c2c[nH]c3ncccc23)cc(CNC(=O)c2cccn(Cc3ccc(F)c(F)c3)c2=O)n1 | < 500 nM |
| O=C(NCc1ccc(O)c(-c2c[nH]c3ncccc23)c1)c1cccn(Cc2ccc(F)c(F)c2)c1=O | < 500 nM |
| CC(=O)NC[C@@H](NC(=O)c1cccn(Cc2ccc(F)c(F)c2)c1=O)c1nc(-c2c[nH]c3ncccc23)cs1 | < 500 nM |

| Compound | IC50 |
| --- | --- |
| CC(C)(C)OC(=O)N1CCC(Oc2cc(CNC(=O)c3cccn(Cc4ccc(F)c(F)c4)c3=O)cc(-c3c[nH]c4ncccc34)c2)CC1 | < 500 nM |
| O=C(NCc1cc(OC2CCCCC2)cc(-c2c[nH]c3ncccc23)c1)c1cccn(Cc2ccc(F)c(F)c2)c1=O | < 500 nM |
| COc1cnc2[nH]cc(-c3cccc(CNC(=O)c4cccn(Cc5ccc(F)c(F)c5)c4=O)c3)c2c1 | < 500 nM |
| O=C(NC1CC1)c1cnc2[nH]cc(-c3cccc(CNC(=O)c4cccn(Cc5ccc(F)c(F)c5)c4=O)c3)c2c1 | < 500 nM |
| O=C(NCc1cc(-c2c[nH]c3ncccc23)cc[n+]1[O-])c1cccn(Cc2ccc(F)c(F)c2)c1=O | < 500 nM |
| O=C(NCc1cccc(-c2c[nH]c3ncc(O)cc23)c1)c1cccn(Cc2ccc(F)c(F)c2)c1=O | < 500 nM |
| CCn1nc(NC(=O)c2cccn(Cc3ccc(F)c(F)c3)c2=O)c2cc(-c3c[nH]c4ncccc34)ccc21 | < 500 nM |
| O=C(NCc1cc(OC2CCNCC2)cc(-c2c[nH]c3ncccc23)c1)c1cccn(Cc2ccc(F)c(F)c2)c1=O | < 500 nM |
| O=C(NCc1cc(OS(=O)(=O)c2ccccc2)cc(-c2c[nH]c3ncccc23)c1)c1cccn(Cc2ccc(F)c(F)c2)c1=O | < 500 nM |
| O=C(NCc1cccc(-c2c[nH]c(C(=O)N3CCOCC3)c2)c1)c1cccn(Cc2ccc(F)c(F)c2)c1=O | < 500 nM |
| COc1ccc(-c2c[nH]c3ncccc23)cc1CNC(=O)c1cccn(Cc2ccc(F)c(F)c2)c1=O | < 500 nM |
| O=C(NCCOc1ccc2[nH]c(=O)[nH]c2c1F)c1cccn(Cc2ccc(F)c(F)c2)c1=O | < 500 nM |
| O=C(NCc1cccc(-c2c[nH]c3ncc(C(=O)N4CCOCC4)cc23)c1)c1cccn(Cc2ccc(F)c(F)c2)c1=O | < 500 nM |
| COc1cnc2[nH]cc(-c3ccc(CNC(=O)c4cccn(Cc5ccc(F)c(F)c5)c4=O)s3)c2c1 | < 500 nM |
| CS(=O)(=O)N1CCC(Oc2cc(CNC(=O)c3cccn(Cc4ccc(F)c(F)c4)c3=O)cc(-c3c[nH]c4ncccc34)c2)CC1 | < 500 nM |
| CNC(=O)c1cc(-c2cccc(CNC(=O)c3cccn(Cc4ccc(F)c(F)c4)c3=O)c2)c[nH]1 | < 500 nM |
| O=C(NCc1cccc(-c2c[nH]c3ncc(C(=O)N4CCNCC4)cc23)c1)c1cccn(Cc2ccc(F)c(F)c2)c1=O | < 500 nM |
| O=C(NCc1noc(-c2c[nH]c3ncccc23)n1)c1cccn(Cc2cc(F)c(F)c(F)c2)c1=O | < 500 nM |
| O=C(N[C@@H](COc1ccc2[nH]c(=O)[nH]c2c1)c1ccccc1Cl)c1cccn(Cc2cc(F)c(F)c(F)c2)c1=O | < 500 nM |
| O=C(NCc1coc(-c2c[nH]c3ncccc23)n1)c1cccn(Cc2ccc(F)c(F)c2)c1=O | < 500 nM |
| O=C(NCc1noc(-c2c[nH]c3ncccc23)n1)c1cccn(Cc2ccc(F)c(F)c2)c1=O | < 500 nM |
| O=C(NCc1cccc(-c2c[nH]c3ncc(C(F)(F)F)cc23)c1)c1cccn(Cc2ccc(F)c(F)c2)c1=O | < 500 nM |
| CC(C)Oc1cc(CNC(=O)c2cccn(Cc3cc(F)c(F)c(F)c3)c2=O)cc(-c2c[nH]c3ncccc23)c1 | < 500 nM |
| O=C(NCc1cc(OCC(O)CO)cc(-c2c[nH]c3ncccc23)c1)c1cccn(Cc2ccc(F)c(F)c2)c1=O (configuration not stated) | < 500 nM |
| NC(=O)c1cc(-c2c[nH]c3ncccc23)cc(CNC(=O)c2cccn(Cc3ccc(F)c(F)c3)c2=O)n1 | < 500 nM |
| CC(c1ccc(C(F)(F)F)cc1)n1cccc(C(=O)NCc2noc(-c3c[nH]c4ncccc34)n2)c1=O (configuration not stated) | < 500 nM |
